Assay [1] has as its system Escherichia coli. In words: Antimicrobial activity against qnrS1-positive ampicillin-resistant Escherichia coli isolate 8 expressing gyrA S83L/D87N and parC S80I mutants by Etest.
For assay [2], the system named is Escherichia coli. In words: Antimicrobial activity against qnrS1-positive multidrug-resistant Escherichia coli isolate 9 expressing gyrA S83L/D87N and parC S80I mutants by Etest.
Assay [3] concerns Escherichia coli. The assay is described as follows: Antimicrobial activity against qnrS1-positive multidrug-resistant Escherichia coli isolate 3 expressing beta-lactamase CTX-M-15, gyrA S83L/D87N and parC S80I mutant by Etest.
Assay [4] relates to Escherichia coli. In words: Antimicrobial activity against Escherichia coli harboring plasmid carrying qnrS1 gene by Etest.
Assay [5] has as its system Escherichia coli. In words: Antimicrobial activity against qnrS1-positive multidrug-resistant Escherichia coli isolate 4 expressing gyrA S83L/D87N and parC S80I mutants by Etest.
Assay [6] has as its system Escherichia coli. In words: Antimicrobial activity against qnrS1-positive multidrug-resistant Escherichia coli isolate 10 expressing gyrA S83L/D87N and parC S80I mutants by Etest.
Assay [7] concerns Escherichia coli. The assay is described as follows: Antimicrobial activity against qnrS1-positive ampicillin and amoxicillin-resistant Escherichia coli isolate 6 expressing gyrA S83L/D87N and parC S80I mutants by Etest.
For assay [8], the system named is Escherichia coli. In words: Antimicrobial activity against qnrS1-positive ampicillin-resistant Escherichia coli isolate 7 expressing gyrA S83L/D87N and parC S80I mutants by Etest.

Structures are written as SMILES. Converted amounts (≈) assume the structure as drawn.

A word on the MIC: it is the smallest concentration in the dilution series that meets the test's criterion for growth inhibition. Read a low MIC as greater potency.

As for `O=C(O)c1cn(C2CC2)c2cc(N3CCNCC3)c(F)cc2c1=O` [CIPROFLOXACIN], the MIC came out at 128 µg/mL (≈ 386 µM) against Escherichia coli [1]; 128 µg/mL (≈ 386 µM) with Escherichia coli [2]; 64 µg/mL (≈ 193 µM) with Escherichia coli [3]; 0.032 µg/mL (≈ 0.0966 µM) against Escherichia coli [4]; 64 µg/mL (≈ 193 µM) against Escherichia coli [5]; 128 µg/mL (≈ 386 µM) in the assay with Escherichia coli [6]. Moreover, the MIC stood at 64 µg/mL (≈ 193 µM) in the assay with Escherichia coli [7] and 128 µg/mL (≈ 386 µM) against Escherichia coli [8].

Source of the values: ChEMBL document CHEMBL1255378, “Emergence of the plasmid-mediated quinolone resistance gene qnrS1 in Escherichia coli isolates in Greece” (2008).
